Type in all cases: biochemical
The target in experiment [1] is JAK2 (Homo sapiens (Human), UniProt O60674). Nature of the experiment: JAK Caliper Enzyme Assay at 1 mM ATP, JAK2. The gist of the method: (§1)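 First, compound was incubated at room temperature with recombinant human kinase domain, a synthetic peptide and 1 mM ATP until 20–30% of peptide was phosphorylated. Next, EDTA stopped the reaction. Finally, electrophoretic separation quantified product, and percent effect relative to controls was plotted against concentration.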
Sequence of JAK2 (O60674 849-1124): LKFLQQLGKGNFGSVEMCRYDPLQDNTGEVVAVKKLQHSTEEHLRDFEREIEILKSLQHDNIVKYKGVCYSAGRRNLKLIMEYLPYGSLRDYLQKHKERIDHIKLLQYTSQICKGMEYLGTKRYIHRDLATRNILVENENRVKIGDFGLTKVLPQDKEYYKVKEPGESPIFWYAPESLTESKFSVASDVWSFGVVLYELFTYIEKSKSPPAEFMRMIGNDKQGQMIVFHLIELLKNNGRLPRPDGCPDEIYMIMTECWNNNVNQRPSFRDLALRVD

For experiment [2], the target named is JAK3 (Homo sapiens (Human), UniProt P52333). Kind of experiment: JAK Caliper Enzyme Assay at 1 mM ATP, JAK3. The gist of the method: (§2)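 Recombinant human kinase domains phosphorylate a fluorescent synthetic peptide at 1 mM ATP, room temperature, with enzyme and time tuned for 20-30% conversion; EDTA-stopped. Product/substrate separated by microfluidic mobility shift; percent effect versus DMSO and positive controls fitted to IC50 (nM).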
Sequence of JAK3 (P52333 822-1111): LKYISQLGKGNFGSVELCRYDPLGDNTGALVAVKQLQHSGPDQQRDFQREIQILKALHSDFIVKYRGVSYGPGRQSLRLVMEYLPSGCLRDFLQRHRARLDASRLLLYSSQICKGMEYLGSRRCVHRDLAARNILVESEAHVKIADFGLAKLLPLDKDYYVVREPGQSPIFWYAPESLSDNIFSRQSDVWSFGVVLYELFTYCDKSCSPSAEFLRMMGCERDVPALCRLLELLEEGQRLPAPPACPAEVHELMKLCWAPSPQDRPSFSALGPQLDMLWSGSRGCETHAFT

The target in experiment [3] is TYK2 (Homo sapiens (Human), UniProt P29597). Kind of experiment: JAK Caliper Enzyme Assay at 1 mM ATP, TYK2. Put shortly: as §1
Sequence of TYK2 (P29597 897-1176): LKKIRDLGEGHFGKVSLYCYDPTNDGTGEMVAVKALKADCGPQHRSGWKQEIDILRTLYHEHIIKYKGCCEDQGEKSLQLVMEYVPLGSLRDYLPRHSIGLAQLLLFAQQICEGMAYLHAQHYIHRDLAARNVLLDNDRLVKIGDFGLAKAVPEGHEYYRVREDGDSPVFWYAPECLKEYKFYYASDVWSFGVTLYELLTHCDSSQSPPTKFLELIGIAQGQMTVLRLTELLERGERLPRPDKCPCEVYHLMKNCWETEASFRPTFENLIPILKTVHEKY
Experiment [4] has as its target JAK1 (Homo sapiens (Human), UniProt P23458). Kind of experiment: JAK Caliper Enzyme Assay at 1 mM ATP, JAK1. The gist of the method:
as §2

Sequence of JAK1 (P23458 875-1153): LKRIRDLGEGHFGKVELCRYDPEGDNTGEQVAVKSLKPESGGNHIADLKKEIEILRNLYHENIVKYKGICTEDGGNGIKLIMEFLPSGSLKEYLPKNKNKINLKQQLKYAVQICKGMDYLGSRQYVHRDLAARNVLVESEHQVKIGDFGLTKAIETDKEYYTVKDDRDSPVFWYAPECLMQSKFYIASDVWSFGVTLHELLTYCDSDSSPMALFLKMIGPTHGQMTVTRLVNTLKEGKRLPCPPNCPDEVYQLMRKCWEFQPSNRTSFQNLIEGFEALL

Regarding `Cc1cc(-c2cc(-c3cnn(C4(CC#N)CN(S(C)(=O)=O)C4)n3)c3cccnc3c2)ccn1` [Example 356, [3-{4-[7-(2-methylpyridin-4-yl)quinolin-5-yl]-2H-1,2,3-triazol-2-yl}-1-(methylsulfonyl)azetidin-3-yl]acetonitrile], the IC50 was 973 nM in experiment [1], above 10000 nM in experiment [2], 130 nM in experiment [3] and above 10000 nM in experiment [4].

Consider `N#CC[C@]1(n2ncc(-c3cc(-c4cccc(N)n4)cc4ncccc34)n2)C[C@H](C#N)C1` [Example 357, trans-3-{4-[7-(6-aminopyridin-2-yl)quinolin-5-yl]-2H-1,2,3-triazol-2-yl}-3-(cyanomethyl)cyclobutanecarbonitrile], for which the IC50 in experiment [1] was 670 nM; in experiment [2], above 10000 nM; in experiment [3] it was 99 nM; in experiment [4] it was 2580 nM.

For the molecule `N#CC[C@]1(n2ncc(-c3cc(-c4cccc(N)n4)cc4ncccc34)n2)C[C@@H](C#N)C1` [Example 358, cis-3-{4-[7-(6-aminopyridin-2-yl)quinolin-5-yl]-2H-1,2,3-triazol-2-yl}-3-(cyanomethyl)cyclobutanecarbonitrile], the IC50 came to 92 nM in experiment [1], 3760 nM in experiment [2], 20 nM in experiment [3] and 404 nM in experiment [4].

Take `N#CC[C@]1(n2ncc(-c3cc(-c4ccc(N)cn4)cc4ncccc34)n2)C[C@@H](C#N)C1` [Example 359, cis-3-{4-[7-(5-aminopyridin-2-yl)quinolin-5-yl]-2H-1,2,3-triazol-2-yl}-3-(cyanomethyl)cyclobutanecarbonitrile]: the IC50 in experiment [1] was determined as 69 nM; in experiment [2], 6700 nM; in experiment [3] it was 13 nM; in experiment [4], 321 nM.

As for `N#CC[C@]1(n2ncc(-c3cc(-c4ccc(N)cn4)cc4ncccc34)n2)C[C@H](C#N)C1` [Example 360, trans-3-{4-[7-(5-aminopyridin-2-yl)quinolin-5-yl]-2H-1,2,3-triazol-2-yl}-3-(cyanomethyl)cyclobutanecarbonitrile], the IC50 is 354 nM in experiment [1], above 10000 nM in experiment [2], 40 nM in experiment [3] and 1720 nM in experiment [4].

`CS(=O)(=O)N1CC(CC#N)(n2ncc(-c3cc(-c4cccnc4N)cc4ncccc34)n2)C1` [Example 361, [3-{4-[7-(2-aminopyridin-3-yl)quinolin-5-yl]-2H-1,2,3-triazol-2-yl}-1-(methylsulfonyl)azetidin-3-yl]acetonitrile]: the IC50 in experiment [1] was above 10000 nM; in experiment [2], above 10000 nM; in experiment [3], 3630 nM; in experiment [4], above 10000 nM.

For the molecule `N#CC[C@]1(n2ncc(-c3cc(-c4cccnc4N)cc4ncccc34)n2)C[C@@H](C#N)C1` [Example 362, cis-3-{4-[7-(2-aminopyridin-3-yl)quinolin-5-yl]-2H-1,2,3-triazol-2-yl}-3-(cyanomethyl)cyclobutanecarbonitrile], the IC50 in experiment [1] was above 10000 nM; in experiment [2], above 10000 nM; in experiment [3], 1960 nM; in experiment [4], above 10000 nM.

Turning to `N#CC[C@]1(n2ncc(-c3cc(-c4cccnc4N)cc4ncccc34)n2)C[C@H](C#N)C1` [Example 363, trans-3-{4-[7-(2-aminopyridin-3-yl)quinolin-5-yl]-2H-1,2,3-triazol-2-yl}-3-(cyanomethyl)cyclobutanecarbonitrile], the half-maximal inhibitory concentration (IC50) in experiment [1] is above 10000 nM; in experiment [2] it was above 10000 nM; in experiment [3] it was 6840 nM; in experiment [4], above 10000 nM.

As to `CS(=O)(=O)N1CC(CC#N)(n2ncc(-c3cc(-c4ccc(N)nc4)cc4ncccc34)n2)C1` [Example 364, [3-{4-[7-(6-aminopyridin-3-yl)quinolin-5-yl]-2H-1,2,3-triazol-2-yl}-1-(methylsulfonyl)azetidin-3-yl]acetonitrile], the IC50 in experiment [1] was 834 nM; in experiment [2], above 10000 nM; in experiment [3] it was 67 nM; in experiment [4], 2960 nM.

As for `N#CC[C@]1(n2ncc(-c3cc(-c4ccc(N)nc4)cc4ncccc34)n2)C[C@H](C#N)C1` [Example 365, trans-3-{4-[7-(6-aminopyridin-3-yl)quinolin-5-yl]-2H-1,2,3-triazol-2-yl}-3-(cyanomethyl)cyclobutanecarbonitrile], the IC50 in experiment [1] is 938 nM; in experiment [2], above 10000 nM; in experiment [3], 103 nM; in experiment [4], 2660 nM.

Turning to `N#CC[C@]1(n2ncc(-c3cc(-c4ccc(N)nc4)cc4ncccc34)n2)C[C@@H](C#N)C1` [Example 366, cis-3-{4-[7-(6-aminopyridin-3-yl)quinolin-5-yl]-2H-1,2,3-triazol-2-yl}-3-(cyanomethyl)cyclobutanecarbonitrile], the IC50 in experiment [1] was 167 nM; in experiment [2] it was 8160 nM; in experiment [3], 26 nM; in experiment [4], 520 nM.

For `N#CC[C@]1(n2ncc(-c3cc(-c4ccnc(N)c4)cc4ncccc34)n2)C[C@H](C#N)C1` [Example 367, trans-3-{4-[7-(2-aminopyridin-4-yl)quinolin-5-yl]-2H-1,2,3-triazol-2-yl}-3-(cyanomethyl)cyclobutanecarbonitrile], the IC50 in experiment [1] was 1290 nM; in experiment [2], above 10000 nM; in experiment [3], 93 nM; in experiment [4], 2800 nM.

In the case of `CS(=O)(=O)c1ccc(-c2cc(-c3cnn([C@]4(CC#N)C[C@H](C#N)C4)n3)c3cccnc3c2)nc1` [Example 368, cis-3-(cyanomethyl)-3-(4-{7-[5-(methylsulfonyl)pyridin-2-yl]quinolin-5-yl}-2H-1,2,3-triazol-2-yl)cyclobutanecarbonitrile], the IC50 is 42 nM in experiment [1], 7250 nM in experiment [2], 15 nM in experiment [3] and 525 nM in experiment [4].

On to `CS(=O)(=O)c1ccc(-c2cc(-c3cnn([C@]4(CC#N)C[C@@H](C#N)C4)n3)c3cccnc3c2)nc1` [Example 369, trans-3-(cyanomethyl)-3-(4-{7-[5-(methylsulfonyl)pyridin-2-yl]quinolin-5-yl}-2H-1,2,3-triazol-2-yl)cyclobutanecarbonitrile], for which the concentration for half-maximal inhibition (IC50) was 281 nM in experiment [1], above 10000 nM in experiment [2], 55 nM in experiment [3] and 3510 nM in experiment [4].

Turning to `N#CC[C@]1(n2ncc(-c3cc(-c4cccc(C(=O)O)n4)cc4ncccc34)n2)C[C@H](C#N)C1` [Example 370, 6-(5-{2-[cis-3-cyano-1-(cyanomethyl)cyclobutyl]-2H-1,2,3-triazol-4-yl}quinolin-7-yl)pyridine-2-carboxylic acid], the half-inhibitory concentration (IC50) is 345 nM in experiment [1], above 10000 nM in experiment [2], 30 nM in experiment [3] and 2290 nM in experiment [4].

With `N#CC[C@]1(n2ncc(-c3cc(-c4cccc(C(=O)O)n4)cc4ncccc34)n2)C[C@@H](C#N)C1` [Example 371, 6-(5-{2-[trans-3-cyano-1-(cyanomethyl)cyclobutyl]-2H-1,2,3-triazol-4-yl}quinolin-7-yl)pyridine-2-carboxylic acid], the IC50 is 1610 nM in experiment [1], above 10000 nM in experiment [2], 110 nM in experiment [3] and 9280 nM in experiment [4].

Values taken from patent publication US11254668B2, “Pyrazolo[1,5-A]pyrazin-4-yl and related derivatives” (Pfizer Inc., priority 2017, dated 2022).
